Test results from US20070232588A1, “Anti-parasitic and/or anti-viral and/or anti-microbial compositions” (priority 2004, published 2007).
≈ marks a conversion by molar mass, not a printed value.

Tests used:
[1] = Countercurrent distribution, KrKb (partition coefficient x dissociation constant); type: physicochemical
Method: The diverse tertiary alkaloids contained in the basic extract of Example 1, were separated by countercurrent distribution, with dichloromethane as the stationary phase and an aqueous buffer with an incrementally decreasing pH (mobile phase). The alkaloids were recovered from the aqueous phase by extraction with dichloromethane.
The equipment used was a Craig type Post apparatus made up of 200 glass tubes (with 10 ml volumes for the lower phase and 10 ml volumes for the upper phase).

[2] = tested on: Plasmodium falciparum Strain W2; test: In vitro antiplasmodial activity (IC50), strain W2; type: cell-based
Method: (§1) The basic extracts obtained as in Example 1, from both the root and stem bark with a yield of 1.9% were used to carry out the in vitro antiplasmodial activity study on known Plasmodium falciparum strains.
(§2) Plasmodium falciparum strains D6 and W2 were used throughout this investigation. Laboratory isolates of P. falciparum were grown under controlled conditions in culture medium containing leukocyte-free red blood cells (RBCs) at 5% hematocrit (Tager and Jensen, 1976). Briefly, parasites were allowed to infect RBCs in a media consisting of RPMI 1640 plus 25 mM Hepes, 0.25 glucose, 0.2% sodium bicarbonate, 0.5% Albumax II, and 50 mg/liter hypoxanthine and grown in 5% CO2 at 37° C. […]
(§3) Assessment of parasite development and morphology. Parasite development and morphology were evaluated by microscopic examination of Giemsa-stained thin blood smears at 24, 48, and 72 hour intervals in the presence of increasing doses of the alkaloids dissolved as a stock solution in 10% (v/v) dimethylsulphoxide (DMSO) in RPMI 1640. […] Smears from drug-free cultures were always used as controls Parasitemia was measured by counting blood cells and expressed as percentage of total parasitized erythrocytes (Table 3).

[3] = tested on: Leishmania infantum promastigotes; test: In vitro leishmanicidal activity, MTT assay; type: cell-based; settings: for Fold Increase (IC50), voacamine with respect to the basic extract: ratio of IC50
Method: Preparation of the anti-leishmanial compositions: The total plant extract was dissolved in DMSO as a 50 mg/mL stock. The purified alkaloid, voacamine, was dissolved in 50% DMSO at a 3 mg/mL stock.
In vitro drug testing. […] 10 μL of 3-(4,5-dimethylthiazol-2-yl)-2,5-diphenyl-2H-tetrazol bromide (MTT, Sigma, 5 mg/mL in PBS) were added to each well and plates were incubated for an additional period of 5 hours. Only viable cells are able to reduce the MTT compound to produce water-insoluble formazan crystals of a purple color. These crystals were dissolved by adding 100 μL of SDS 20% and incubating overnight at 37° C. The absorbance was subsequently read at 540 nanometers using a microplate reader (Beckman Biomek 2000). Cell survival was determined by dividing the absorbance of the compound at a given concentration by the absorbance of control cells grown in the absence of drug. The 50% inhibitory concentration (IC50) values were graphically determined after plotting the percentage of growth as a function of drug concentration. All experiments were performed in duplicate.

[4] = tested on: Plasmodium falciparum Strain D6; test: In vitro antiplasmodial activity (IC50), strain D6; type: cell-based
Method: as §1, §2, §3

With `CC=C1CN(C)C2Cc3c([nH]c4ccccc34)C(=O)CC1C2CO` (stereo not drawn) [16-epi-affinine] the “KrKb (Kr partition coefficient aqueous phase/organic phase, Kb dissociation constant)” value [1] was 2.5×10^−9.

With `CC=C1CN(C)C2Cc3c([nH]c4ccccc34)C(c3cc4[nH]c5c(c4cc3OC)CCN3CC4CC(CC)C3C5(C(=O)OC)C4)CC1C2C(=O)OC` (stereo not drawn) [Ex. 2, voacamine] the IC50 [2] was 0.29 µg/mL (≈ 0.411 µM), the IC90 ([3]; Leishmania infantum, 72 h) was 7 µg/mL (≈ 9.93 µM) and the IC50 ([3]; Leishmania infantum, 72 h, read-out: IC50 (concentration required to kill 50% of the parasites)) was 3.3 µg/mL (≈ 4.68 µM). For the same compound, the “concentration producing complete cellular destruction” value ([3]; before 72 hours) was 10 µg/mL, the “Fold Increase (IC50), voacamine with respect to the basic extract” value ([3]; listed as Voacamine) was 20.7 fold and the “Fold Increase (IC50), voacamine with respect to the basic extract” value ([3]; listed as voacamine) was 20 fold. The “Fold Increase (IC90), voacamine with respect to the basic extract” value ([3]; ratio of IC90) was 15.7 fold and the IC50 [4] was 0.238 µg/mL (≈ 0.338 µM).

With `C/C=C1/CN2[C@H]3C[C@@H]1[C@@H](CO)[C@@H]2Cc1c3n(C)c2ccccc12` [affinisine] the “KrKb (Kr partition coefficient aqueous phase/organic phase, Kb dissociation constant)” value [1] was 7×10^−10.

In the case of `C/C=C1/CN2[C@H]3Cc4c(n(C)c5ccccc45)[C@@H]2C[C@@H]1[C@@]3(CO)C(=O)OC` [voachalotine], the “KrKb (Kr partition coefficient aqueous phase/organic phase, Kb dissociation constant)” value [1] was 2×10^−11.

In the case of N-demethylvoacamine, the “KrKb (Kr partition coefficient aqueous phase/organic phase, Kb dissociation constant)” value [1] was 3.5×10^−11.
